# Measured values as given in PubChem BioAssay (NCI).
#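 96-well plates; 48 h exposure; 5 concentrations. Endpoints by linear interpolation between flanking doses. Not reached: highest tested concentration assigned. TGI marks complete inhibition of growth.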
# Assays:
# Experiment in all cases: inhibition of tumour cell growth, NCI panel, 48 h
# SF-295 CNS = test system: SF-295 CNS
# DU-145 prostate = test system: DU-145 prostate
# SF-268 CNS = test system: SF-268 CNS
# OVCAR-4 ovarian = test system: OVCAR-4 ovarian
# SK-MEL-28 melanoma = test system: SK-MEL-28 melanoma
# MDA-MB-231 breast = test system: MDA-MB-231 breast
# OVCAR-3 ovarian = test system: OVCAR-3 ovarian
# HCT-15 colon = test system: HCT-15 colon
# SW-620 colon = test system: SW-620 colon
# PC-3 prostate = test system: PC-3 prostate
# SNB-75 CNS = test system: SNB-75 CNS
# SN12C renal = test system: SN12C renal
# IGROV1 ovarian = test system: IGROV1 ovarian
# CAKI-1 renal = test system: CAKI-1 renal
# LOX IMVI melanoma = test system: LOX IMVI melanoma
# MALME-3M melanoma = test system: MALME-3M melanoma
# NCI-H23 lung = test system: NCI-H23 lung
# MOLT-4 leukemia = test system: MOLT-4 leukemia
# U251 CNS = test system: U251 CNS
# ACHN renal = test system: ACHN renal
# NCI/ADR-RES ovarian = test system: NCI/ADR-RES ovarian
# K-562 leukemia = test system: K-562 leukemia
# A498 renal = test system: A498 renal
# HCT-116 colon = test system: HCT-116 colon
# CCRF-CEM leukemia = test system: CCRF-CEM leukemia
# SNB-19 CNS = test system: SNB-19 CNS
# T-47D breast = test system: T-47D breast
# HCC-2998 colon = test system: HCC-2998 colon
# KM12 colon = test system: KM12 colon
# M14 melanoma = test system: M14 melanoma
# HOP-92 NSCLC = test system: HOP-92 NSCLC
# SR leukemia = test system: SR leukemia
# OVCAR-5 ovarian = test system: OVCAR-5 ovarian
# SK-MEL-2 melanoma = test system: SK-MEL-2 melanoma
# MDA-N = test system: MDA-N
# RPMI-8226 leukemia = test system: RPMI-8226 leukemia
# BT-549 breast = test system: BT-549 breast
# SK-OV-3 ovarian = test system: SK-OV-3 ovarian
# UO-31 renal = test system: UO-31 renal
# NCI-H522 lung = test system: NCI-H522 lung
# RXF 393 renal = test system: RXF 393 renal
# OVCAR-8 ovarian = test system: OVCAR-8 ovarian
# TK-10 renal = test system: TK-10 renal
# MDA-MB-435 = test system: MDA-MB-435
# UACC-257 melanoma = test system: UACC-257 melanoma
# HL-60(TB) leukemia = test system: HL-60(TB) leukemia
# HOP-62 NSCLC = test system: HOP-62 NSCLC
# SK-MEL-5 melanoma = test system: SK-MEL-5 melanoma
# HT29 colon = test system: HT29 colon
# MCF7 breast = test system: MCF7 breast
# NCI-H460 lung = test system: NCI-H460 lung
# NCI-H226 lung = test system: NCI-H226 lung
# COLO 205 colon = test system: COLO 205 colon
# EKVX NSCLC = test system: EKVX NSCLC
# 786-0 renal = test system: 786-0 renal
# UACC-62 melanoma = test system: UACC-62 melanoma
# SF-539 CNS = test system: SF-539 CNS
# A549 NSCLC = test system: A549 NSCLC
smiles,measurement,setting,value
O=C1Nc2ccc(Cl)cc2/C1=C\c1c(Cl)nc2sccn12,TGI,SF-295 CNS,25.3 µM
same,TGI,DU-145 prostate,> 100 µM
same,TGI,SF-268 CNS,> 100 µM
same,TGI,OVCAR-4 ovarian,> 100 µM
same,TGI,SK-MEL-28 melanoma,> 100 µM
same,TGI,MDA-MB-231 breast,> 100 µM
same,TGI,OVCAR-3 ovarian,12.4 µM
same,TGI,HCT-15 colon,> 100 µM
same,TGI,SW-620 colon,> 100 µM
same,TGI,PC-3 prostate,> 100 µM
same,TGI,SNB-75 CNS,> 100 µM
same,TGI,SN12C renal,> 100 µM
same,TGI,IGROV1 ovarian,> 100 µM
same,TGI,CAKI-1 renal,> 100 µM
same,TGI,LOX IMVI melanoma,> 100 µM
same,TGI,MALME-3M melanoma,> 100 µM
same,TGI,NCI-H23 lung,> 100 µM
same,TGI,MOLT-4 leukemia,51.9 µM
same,TGI,U251 CNS,> 100 µM
same,TGI,ACHN renal,> 100 µM
same,TGI,NCI/ADR-RES ovarian,17.6 µM
same,TGI,K-562 leukemia,> 100 µM
same,TGI,A498 renal,8.66 µM
same,TGI,HCT-116 colon,34 µM
same,TGI,CCRF-CEM leukemia,62.3 µM
same,TGI,SNB-19 CNS,> 100 µM
same,TGI,T-47D breast,> 100 µM
same,TGI,HCC-2998 colon,> 100 µM
same,TGI,KM12 colon,23.4 µM
same,TGI,M14 melanoma,> 100 µM
same,TGI,HOP-92 NSCLC,> 100 µM
same,TGI,SR leukemia,> 100 µM
same,TGI,OVCAR-5 ovarian,78.2 µM
same,TGI,SK-MEL-2 melanoma,> 100 µM
same,TGI,MDA-N,8.42 µM
same,TGI,RPMI-8226 leukemia,> 100 µM
same,TGI,BT-549 breast,> 100 µM
same,TGI,SK-OV-3 ovarian,> 100 µM
same,TGI,UO-31 renal,> 100 µM
same,TGI,NCI-H522 lung,> 100 µM
same,TGI,RXF 393 renal,> 100 µM
same,TGI,OVCAR-8 ovarian,> 100 µM
same,TGI,TK-10 renal,> 100 µM
same,TGI,MDA-MB-435,3.22 µM
same,TGI,UACC-257 melanoma,> 100 µM
same,TGI,HL-60(TB) leukemia,33.7 µM
same,TGI,HOP-62 NSCLC,96.3 µM
O=C(NCc1cccc2ccccc12)N/N=C\c1ccc(Cl)cc1,TGI,SF-295 CNS,> 100 µM
same,TGI,DU-145 prostate,> 100 µM
same,TGI,SF-268 CNS,> 100 µM
same,TGI,OVCAR-4 ovarian,> 100 µM
same,TGI,SK-MEL-28 melanoma,> 100 µM
same,TGI,OVCAR-3 ovarian,> 100 µM
same,TGI,HCT-15 colon,> 100 µM
same,TGI,SW-620 colon,> 100 µM
same,TGI,PC-3 prostate,> 100 µM
same,TGI,SNB-75 CNS,> 100 µM
same,TGI,SN12C renal,> 100 µM
same,TGI,IGROV1 ovarian,> 100 µM
same,TGI,SK-MEL-5 melanoma,> 100 µM
same,TGI,CAKI-1 renal,> 100 µM
same,TGI,LOX IMVI melanoma,> 100 µM
same,TGI,MALME-3M melanoma,> 100 µM
same,TGI,NCI-H23 lung,> 100 µM
same,TGI,MOLT-4 leukemia,> 100 µM
same,TGI,HT29 colon,> 100 µM
same,TGI,MCF7 breast,> 100 µM
same,TGI,U251 CNS,> 100 µM
same,TGI,ACHN renal,> 100 µM
same,TGI,NCI/ADR-RES ovarian,> 100 µM
same,TGI,K-562 leukemia,> 100 µM
same,TGI,HCT-116 colon,> 100 µM
same,TGI,NCI-H460 lung,> 100 µM
same,TGI,NCI-H226 lung,> 100 µM
same,TGI,CCRF-CEM leukemia,> 100 µM
same,TGI,SNB-19 CNS,> 100 µM
same,TGI,T-47D breast,> 100 µM
same,TGI,HCC-2998 colon,> 100 µM
same,TGI,KM12 colon,> 100 µM
same,TGI,M14 melanoma,> 100 µM
same,TGI,HOP-92 NSCLC,> 100 µM
same,TGI,COLO 205 colon,> 100 µM
same,TGI,SR leukemia,> 100 µM
same,TGI,OVCAR-5 ovarian,> 100 µM
same,TGI,SK-MEL-2 melanoma,> 100 µM
same,TGI,MDA-N,75.7 µM
same,TGI,EKVX NSCLC,> 100 µM
same,TGI,786-0 renal,> 100 µM
same,TGI,RPMI-8226 leukemia,> 100 µM
same,TGI,BT-549 breast,> 100 µM
same,TGI,UO-31 renal,> 100 µM
same,TGI,NCI-H522 lung,> 100 µM
same,TGI,UACC-62 melanoma,> 100 µM
same,TGI,RXF 393 renal,> 100 µM
same,TGI,SF-539 CNS,> 100 µM
same,TGI,OVCAR-8 ovarian,> 100 µM
same,TGI,TK-10 renal,> 100 µM
same,TGI,MDA-MB-435,> 100 µM
same,TGI,UACC-257 melanoma,> 100 µM
same,TGI,HL-60(TB) leukemia,> 100 µM
same,TGI,HOP-62 NSCLC,> 100 µM
COC(=O)N1CC2C3C4CC(C(c5ccccc5)=C4c4ccccc4)C3C21 (stereo unspecified),TGI,SF-295 CNS,32.4 µM
same,TGI,DU-145 prostate,34.5 µM
same,TGI,SF-268 CNS,33.7 µM
same,TGI,OVCAR-4 ovarian,29.5 µM
same,TGI,SK-MEL-28 melanoma,35.4 µM
same,TGI,MDA-MB-231 breast,22.3 µM
same,TGI,OVCAR-3 ovarian,36.7 µM
same,TGI,SW-620 colon,40.4 µM
same,TGI,PC-3 prostate,69.3 µM
same,TGI,SNB-75 CNS,76.4 µM
same,TGI,SN12C renal,33.1 µM
same,TGI,IGROV1 ovarian,45.6 µM
same,TGI,SK-MEL-5 melanoma,25.9 µM
same,TGI,CAKI-1 renal,32.8 µM
same,TGI,LOX IMVI melanoma,25.6 µM
same,TGI,NCI-H23 lung,98.1 µM
same,TGI,MOLT-4 leukemia,38.6 µM
same,TGI,HT29 colon,37.7 µM
same,TGI,MCF7 breast,78.3 µM
same,TGI,U251 CNS,27.5 µM
same,TGI,ACHN renal,52.3 µM
same,TGI,NCI/ADR-RES ovarian,35.4 µM
same,TGI,K-562 leukemia,> 100 µM
same,TGI,HCT-116 colon,25.7 µM
same,TGI,NCI-H460 lung,32.2 µM
same,TGI,NCI-H226 lung,29.6 µM
same,TGI,CCRF-CEM leukemia,43.4 µM
same,TGI,SNB-19 CNS,57.5 µM
same,TGI,T-47D breast,32.9 µM
same,TGI,HCC-2998 colon,31.5 µM
same,TGI,A549 NSCLC,73.1 µM
same,TGI,KM12 colon,34.2 µM
same,TGI,M14 melanoma,51.9 µM
same,TGI,HOP-92 NSCLC,24.5 µM
same,TGI,COLO 205 colon,45.2 µM
same,TGI,SR leukemia,51.1 µM
same,TGI,OVCAR-5 ovarian,91.2 µM
same,TGI,SK-MEL-2 melanoma,50.5 µM
same,TGI,MDA-N,46.5 µM
same,TGI,EKVX NSCLC,36.7 µM
same,TGI,RPMI-8226 leukemia,53.4 µM
same,TGI,BT-549 breast,31.4 µM
same,TGI,SK-OV-3 ovarian,70.2 µM
same,TGI,UO-31 renal,26 µM
same,TGI,UACC-62 melanoma,27 µM
same,TGI,RXF 393 renal,39.9 µM
same,TGI,SF-539 CNS,32 µM
same,TGI,OVCAR-8 ovarian,35.7 µM
same,TGI,TK-10 renal,30.8 µM
same,TGI,MDA-MB-435,32.8 µM
same,TGI,UACC-257 melanoma,28.9 µM
same,TGI,HOP-62 NSCLC,42.5 µM
Nc1nc2c(c(=O)[nH]1)C(c1ccc(Cl)cc1)C=C(c1ccccc1)N2 (stereo unspecified),TGI,SF-295 CNS,> 100 µM
same,TGI,DU-145 prostate,> 100 µM
same,TGI,OVCAR-4 ovarian,> 100 µM
same,TGI,SK-MEL-28 melanoma,60.6 µM
same,TGI,MDA-MB-231 breast,43.6 µM
same,TGI,HCT-15 colon,> 100 µM
same,TGI,SW-620 colon,61.9 µM
same,TGI,SN12C renal,46.6 µM
same,TGI,SK-MEL-5 melanoma,55.8 µM
same,TGI,CAKI-1 renal,> 100 µM
same,TGI,LOX IMVI melanoma,> 100 µM
same,TGI,NCI-H23 lung,59.1 µM
same,TGI,U251 CNS,39.4 µM
same,TGI,ACHN renal,> 100 µM
same,TGI,K-562 leukemia,60 µM
same,TGI,A498 renal,> 100 µM
same,TGI,HCT-116 colon,41.8 µM
same,TGI,NCI-H460 lung,71.7 µM
same,TGI,CCRF-CEM leukemia,93.4 µM
same,TGI,SNB-19 CNS,> 100 µM
same,TGI,T-47D breast,72.7 µM
same,TGI,HCC-2998 colon,34.2 µM
same,TGI,A549 NSCLC,> 100 µM
same,TGI,HOP-92 NSCLC,54.7 µM
same,TGI,COLO 205 colon,45.6 µM
same,TGI,SR leukemia,51.8 µM
same,TGI,MDA-N,47.7 µM
same,TGI,786-0 renal,74.5 µM
same,TGI,RPMI-8226 leukemia,39.3 µM
same,TGI,BT-549 breast,> 100 µM
same,TGI,SK-OV-3 ovarian,54.9 µM
same,TGI,UO-31 renal,> 100 µM
same,TGI,UACC-62 melanoma,78.3 µM
same,TGI,RXF 393 renal,> 100 µM
same,TGI,TK-10 renal,> 100 µM
same,TGI,MDA-MB-435,41.8 µM
same,TGI,UACC-257 melanoma,> 100 µM
same,TGI,HL-60(TB) leukemia,> 100 µM
